Publication doi:10.1101/2023.11.24.568596v1 (biorxiv, 2023)

Columns and labels:
Details in all cases: binder
SLK = SLK (Homo sapiens, UniProt Q9H2G2)
AKT3 = AKT3 (Homo sapiens, UniProt Q9Y243)
BRD4 = BRD4 (Homo sapiens, UniProt O60885)
SRPK1 = SRPK1 (Homo sapiens, UniProt Q96SB4)
DCAMKL1 = target: T1, DCAMKL1 (Homo sapiens, UniProt O15075)
T1 sequence (O15075 1-740): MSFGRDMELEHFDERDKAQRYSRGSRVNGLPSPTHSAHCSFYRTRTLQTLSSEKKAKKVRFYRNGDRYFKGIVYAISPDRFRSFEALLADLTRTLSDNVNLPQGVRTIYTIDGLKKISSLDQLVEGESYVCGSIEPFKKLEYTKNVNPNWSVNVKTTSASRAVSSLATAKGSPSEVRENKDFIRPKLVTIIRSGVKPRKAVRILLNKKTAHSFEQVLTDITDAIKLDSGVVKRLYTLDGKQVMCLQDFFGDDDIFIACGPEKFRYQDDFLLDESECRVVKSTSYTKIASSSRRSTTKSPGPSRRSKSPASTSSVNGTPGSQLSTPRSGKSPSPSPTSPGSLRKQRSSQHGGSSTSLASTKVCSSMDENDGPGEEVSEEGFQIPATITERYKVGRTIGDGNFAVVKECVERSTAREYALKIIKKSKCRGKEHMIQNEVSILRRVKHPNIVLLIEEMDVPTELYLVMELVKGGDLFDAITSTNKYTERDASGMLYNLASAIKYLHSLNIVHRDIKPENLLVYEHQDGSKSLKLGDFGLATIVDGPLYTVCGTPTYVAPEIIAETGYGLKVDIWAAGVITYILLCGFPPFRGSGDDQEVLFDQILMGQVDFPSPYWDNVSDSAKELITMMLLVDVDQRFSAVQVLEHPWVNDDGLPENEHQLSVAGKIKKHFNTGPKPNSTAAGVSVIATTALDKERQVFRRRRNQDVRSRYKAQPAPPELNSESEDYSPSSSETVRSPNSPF

MELK = MELK (Homo sapiens, UniProt Q14680)
Chain of MELK (Q14680 whole entry): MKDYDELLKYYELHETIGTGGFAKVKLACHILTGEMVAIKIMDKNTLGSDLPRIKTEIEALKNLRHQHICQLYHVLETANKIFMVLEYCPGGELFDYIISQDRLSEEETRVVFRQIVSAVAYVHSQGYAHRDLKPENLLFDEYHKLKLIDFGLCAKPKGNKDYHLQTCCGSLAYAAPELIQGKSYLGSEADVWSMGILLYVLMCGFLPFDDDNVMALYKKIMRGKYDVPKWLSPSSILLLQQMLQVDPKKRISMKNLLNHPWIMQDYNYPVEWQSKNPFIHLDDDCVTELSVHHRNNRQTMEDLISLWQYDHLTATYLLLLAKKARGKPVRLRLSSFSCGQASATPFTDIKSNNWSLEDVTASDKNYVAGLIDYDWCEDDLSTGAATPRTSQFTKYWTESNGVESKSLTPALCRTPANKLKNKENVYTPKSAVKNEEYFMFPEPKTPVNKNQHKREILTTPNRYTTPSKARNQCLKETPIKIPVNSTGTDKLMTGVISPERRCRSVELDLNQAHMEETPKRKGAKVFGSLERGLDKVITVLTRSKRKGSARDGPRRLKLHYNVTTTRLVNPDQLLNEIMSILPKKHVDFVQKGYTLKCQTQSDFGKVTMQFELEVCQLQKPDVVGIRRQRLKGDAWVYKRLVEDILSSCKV

MAP2K6 = target: T2, MAP2K6 (Homo sapiens, UniProt P52564)
T2 sequence (P52564 1-334): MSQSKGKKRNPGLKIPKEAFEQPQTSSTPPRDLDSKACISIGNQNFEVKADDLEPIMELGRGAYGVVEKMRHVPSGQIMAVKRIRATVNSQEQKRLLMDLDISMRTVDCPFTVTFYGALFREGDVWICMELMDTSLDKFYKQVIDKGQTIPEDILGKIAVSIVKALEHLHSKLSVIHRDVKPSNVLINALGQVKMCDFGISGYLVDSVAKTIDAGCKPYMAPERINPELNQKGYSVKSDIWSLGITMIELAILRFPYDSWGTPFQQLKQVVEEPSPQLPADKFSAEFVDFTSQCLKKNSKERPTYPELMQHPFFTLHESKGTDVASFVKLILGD

MYT1 = target: T3, MYT1 (Homo sapiens, UniProt Q99640)
T3 sequence (Q99640 1-499): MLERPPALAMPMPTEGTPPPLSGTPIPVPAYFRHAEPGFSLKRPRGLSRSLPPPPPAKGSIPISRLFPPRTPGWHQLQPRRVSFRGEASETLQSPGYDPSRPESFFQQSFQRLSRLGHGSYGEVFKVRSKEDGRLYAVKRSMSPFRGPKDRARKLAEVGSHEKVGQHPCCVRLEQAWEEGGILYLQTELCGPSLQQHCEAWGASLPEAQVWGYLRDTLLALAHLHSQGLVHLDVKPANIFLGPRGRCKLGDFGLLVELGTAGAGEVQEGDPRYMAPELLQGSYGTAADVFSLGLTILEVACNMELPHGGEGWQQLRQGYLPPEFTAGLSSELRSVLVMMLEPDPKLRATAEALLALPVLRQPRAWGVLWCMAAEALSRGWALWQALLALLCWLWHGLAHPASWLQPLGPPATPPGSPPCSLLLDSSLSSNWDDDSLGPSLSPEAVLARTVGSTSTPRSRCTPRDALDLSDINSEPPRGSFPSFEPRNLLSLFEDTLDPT

Chain of SRPK1 (Q96SB4 whole entry): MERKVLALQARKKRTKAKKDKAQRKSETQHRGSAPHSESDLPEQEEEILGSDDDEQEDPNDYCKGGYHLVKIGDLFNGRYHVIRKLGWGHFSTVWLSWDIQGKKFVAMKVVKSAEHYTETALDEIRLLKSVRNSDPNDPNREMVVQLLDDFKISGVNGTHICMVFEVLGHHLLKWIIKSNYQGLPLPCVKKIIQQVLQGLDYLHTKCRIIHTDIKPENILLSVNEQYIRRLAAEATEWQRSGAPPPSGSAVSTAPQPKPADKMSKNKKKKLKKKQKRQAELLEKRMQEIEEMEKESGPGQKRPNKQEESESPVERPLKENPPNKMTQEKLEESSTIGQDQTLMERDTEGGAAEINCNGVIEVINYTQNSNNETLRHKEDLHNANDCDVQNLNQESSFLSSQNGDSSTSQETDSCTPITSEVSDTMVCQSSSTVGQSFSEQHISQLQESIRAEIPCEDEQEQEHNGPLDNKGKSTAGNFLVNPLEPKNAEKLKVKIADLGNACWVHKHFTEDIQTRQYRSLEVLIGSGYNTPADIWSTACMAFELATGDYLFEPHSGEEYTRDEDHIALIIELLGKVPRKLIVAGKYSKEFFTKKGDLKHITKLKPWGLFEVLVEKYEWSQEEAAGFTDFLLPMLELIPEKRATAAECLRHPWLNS
Chain of SLK (Q9H2G2 whole entry): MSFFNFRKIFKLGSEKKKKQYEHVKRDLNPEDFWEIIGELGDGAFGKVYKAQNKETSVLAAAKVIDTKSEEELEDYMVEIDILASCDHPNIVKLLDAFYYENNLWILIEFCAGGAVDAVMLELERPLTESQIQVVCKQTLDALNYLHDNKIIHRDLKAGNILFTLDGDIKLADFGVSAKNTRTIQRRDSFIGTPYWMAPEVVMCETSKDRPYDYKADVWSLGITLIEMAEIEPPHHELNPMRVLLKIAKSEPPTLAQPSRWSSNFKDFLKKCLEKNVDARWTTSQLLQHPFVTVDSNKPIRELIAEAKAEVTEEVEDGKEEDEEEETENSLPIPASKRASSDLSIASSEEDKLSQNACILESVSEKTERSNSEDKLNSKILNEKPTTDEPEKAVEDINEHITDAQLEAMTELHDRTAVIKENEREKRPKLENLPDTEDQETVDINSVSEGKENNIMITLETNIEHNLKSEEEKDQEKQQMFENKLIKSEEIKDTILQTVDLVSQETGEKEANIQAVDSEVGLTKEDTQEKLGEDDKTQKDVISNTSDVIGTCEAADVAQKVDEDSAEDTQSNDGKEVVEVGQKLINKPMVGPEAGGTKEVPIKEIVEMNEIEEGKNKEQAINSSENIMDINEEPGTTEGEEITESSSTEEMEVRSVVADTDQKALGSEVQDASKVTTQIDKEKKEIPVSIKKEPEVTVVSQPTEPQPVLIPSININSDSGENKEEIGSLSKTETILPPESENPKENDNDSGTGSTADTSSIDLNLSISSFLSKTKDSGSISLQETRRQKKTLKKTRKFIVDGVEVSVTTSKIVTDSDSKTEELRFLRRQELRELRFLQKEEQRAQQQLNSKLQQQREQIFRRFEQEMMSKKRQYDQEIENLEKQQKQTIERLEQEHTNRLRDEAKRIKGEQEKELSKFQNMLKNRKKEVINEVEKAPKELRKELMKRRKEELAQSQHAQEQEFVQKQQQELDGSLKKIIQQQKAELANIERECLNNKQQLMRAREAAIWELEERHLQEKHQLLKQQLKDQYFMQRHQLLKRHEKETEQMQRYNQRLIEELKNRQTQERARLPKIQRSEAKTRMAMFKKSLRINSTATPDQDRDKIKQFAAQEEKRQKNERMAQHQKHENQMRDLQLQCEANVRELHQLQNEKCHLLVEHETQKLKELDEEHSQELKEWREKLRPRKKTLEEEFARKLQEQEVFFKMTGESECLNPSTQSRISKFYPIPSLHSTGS
Chain of AKT3 (Q9Y243 whole entry): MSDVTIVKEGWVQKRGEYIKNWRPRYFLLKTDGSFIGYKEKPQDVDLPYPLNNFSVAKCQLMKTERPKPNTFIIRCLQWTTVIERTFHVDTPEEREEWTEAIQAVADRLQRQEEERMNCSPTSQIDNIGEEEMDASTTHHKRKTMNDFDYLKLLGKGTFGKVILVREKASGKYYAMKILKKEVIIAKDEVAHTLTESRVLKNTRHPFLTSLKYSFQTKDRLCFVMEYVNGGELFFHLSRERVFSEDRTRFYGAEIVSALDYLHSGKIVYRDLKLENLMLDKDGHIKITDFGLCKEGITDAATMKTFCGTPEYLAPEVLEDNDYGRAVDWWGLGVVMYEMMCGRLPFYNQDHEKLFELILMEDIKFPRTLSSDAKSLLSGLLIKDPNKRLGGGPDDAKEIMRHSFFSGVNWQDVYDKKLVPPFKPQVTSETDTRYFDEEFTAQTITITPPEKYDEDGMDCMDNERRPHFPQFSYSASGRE

SMILES: COc1ccc(O)c(Nc2ncc3cc(-c4ccc(-c5cccc(C)n5)cc4Cl)c(=O)n(CCCCN)c3n2)c1 [compound 34, 8-(4-Aminobutyl)-6-(2-chloro-4-(6-methylpyridin-2-yl)phenyl)-2-((2-hydroxy-5-methoxy-phenyl)amino)pyrido[2,3-d]pyrimidin-7(8H)-one]
- dTm 34 (SLK): 4.7 °C
- dTm 34 (AKT3): 1.3 °C
- dTm 34 (BRD4): -1.8 °C
- dTm 34 (SRPK1): 0.1 °C
- dTm 34 (DCAMKL1): -0.3 °C
- dTm 34 (MELK): 3.3 °C
- dTm 34 (MAP2K6): 5.4 °C
- dTm 34 (MYT1): -2.7 °C

SMILES: Cc1cccc(-c2ccc(-c3cc4cnc(Nc5ccc(F)c(CO)c5)nc4n(CCCCN)c3=O)c(Cl)c2)n1 [compound 33, 8-(4-Aminobutyl)-6-(2-chloro-4-(6-methylpyridin-2-yl)phenyl)-2-((4-fluoro-3-(hydroxymethyl)phenyl)amino)pyrido[2,3-d]pyrimidin-7(8H)-one]
- dTm 33 (SLK): 8.0 °C
- dTm 33 (AKT3): 4.6 °C
- dTm 33 (BRD4): -3.7 °C
- dTm 33 (SRPK1): -0.2 °C
- dTm 33 (DCAMKL1): 1.2 °C
- dTm 33 (MELK): 6.4 °C
- dTm 33 (MAP2K6): 10.2 °C
- dTm 33 (MYT1): -1.8 °C

SMILES: COc1cc(N2CCOCC2)ccc1Nc1ncc2cc(-c3ccc(-c4cccc(C)n4)cc3Cl)c(=O)n(CCCCN)c2n1 [compound 35, 8-(4-Aminobutyl)-6-(2-chloro-4-(6-methylpyridin-2-yl)phenyl)-2-((2-methoxy-4-morpholino-phenyl)amino)pyrido[2,3-d]pyrimidin-7(8H)-one]
- dTm 35 (SLK): 5.1 °C
- dTm 35 (AKT3): 1.0 °C
- dTm 35 (BRD4): -3.6 °C
- dTm 35 (SRPK1): -0.5 °C
- dTm 35 (DCAMKL1): 2.0 °C
- dTm 35 (MELK): 7.5 °C
- dTm 35 (MAP2K6): 6.8 °C
- dTm 35 (MYT1): -3.5 °C

SMILES: COc1cc(N2CCN(C)CC2)ccc1Nc1ncc2cc(-c3ccc(-c4cccc(C)n4)cc3Cl)c(=O)n(CCCCN)c2n1 [compound 36, 8-(4-Aminobutyl)-6-(2-chloro-4-(6-methylpyridin-2-yl)phenyl)-2-((2-methoxy-4-(4-methylpiperazin-1-yl)phenyl)amino)pyrido[2,3-d]pyrimidin-7(8H)-one]
- dTm 36 (SLK): 4.2 °C
- dTm 36 (AKT3): 1.0 °C
- dTm 36 (BRD4): -3.5 °C
- dTm 36 (SRPK1): 0.0 °C
- dTm 36 (DCAMKL1): 1.3 °C
- dTm 36 (MELK): 7.4 °C
- dTm 36 (MAP2K6): 4.4 °C
- dTm 36 (MYT1): -2.8 °C
